Results as given in ChEMBL document CHEMBL3885861, “Open TG-GATES”.

Species: Rattus norvegicus
Experiment: Open TG-GATES - Regimen: Single
Type: toxicity, organism-based, Sprague-Dawley
Design: regimen Single, gender Male, age 6 weeks
Conditions: in vivo, po, 0 mg/kg, route gavage, dose level Control; for APTT / Bas / Eos / Fbg / Hb / Ht / Lym / MCH / MCHC / MCV / Mono / Neu / PT / Plat / RBC / Ret / WBC: tissue Blood; for KIDNEY_L / KIDNEY_R / KIDNEY_TOTAL: tissue Kidney; for LIVER: tissue Liver; for A/G / ALP / ALT / AST / BUN / CRE / Ca / Cl / DBIL / GLC / IP / K / LDH / Na / PL / RALB / TBIL / TC / TG / TP / gamma-GTP: tissue Plasma

CC(=N)S [THIOACETAMIDE]
TERMINAL_BW (3 h): 187.1 g
APTT (3 h): 17.5 s
Bas (3 h): 0%
Eos (3 h): 0.6%
Fbg (3 h): 224.8 mg/dL
Hb (3 h): 13.3 g/dL
Ht (3 h): 40%
Lym (3 h): 77.6%
MCH (3 h): 21.7 pg
MCHC (3 h): 33.1%
MCV (3 h): 65.4 fL
Mono (3 h): 8.2%
Neu (3 h): 13.4%
PT (3 h): 12 s
Plat (3 h): 101.8 x10_4/uL
RBC (3 h): 611.6 x10_4/ul
Ret (3 h): 8.4%
WBC (3 h): 120.6 x10_2/uL
KIDNEY_L (3 h): 0.9 g
KIDNEY_R (3 h): 0.9 g
KIDNEY_TOTAL (3 h): 1.7 g
LIVER (3 h): 8.7 g
A/G (3 h): 2.1
ALP (3 h): 962.8 IU/L
ALT (3 h): 34.4 IU/L
AST (3 h): 69.2 IU/L
BUN (3 h): 10.2 mg/dL
CRE (3 h): 0.5 mg/dL
Ca (3 h): 10.6 mg/dL
Cl (3 h): 103.6 meq/L
DBIL (3 h): 0 mg/dL
GLC (3 h): 181.6 mg/dL
IP (3 h): 9.1 mg/dL
K (3 h): 4.8 meq/L
LDH (3 h): 87.6 IU/L
Na (3 h): 137.2 meq/L
PL (3 h): 141.8 mg/dL
RALB (3 h): 3.7 g/dL
TBIL (3 h): 0.4 mg/dL
TC (3 h): 79.8 mg/dL
TG (3 h): 52 mg/dL
TP (3 h): 5.5 g/dL
gamma-GTP (3 h): 1.8 IU/L
TERMINAL_BW (6 h): 185.6 g
APTT (6 h): 17 s
Bas (6 h): 0%
Eos (6 h): 1%
Fbg (6 h): 221.6 mg/dL
Hb (6 h): 13.1 g/dL
Ht (6 h): 39.7%
Lym (6 h): 79%
MCH (6 h): 21.6 pg
MCHC (6 h): 33.1%
MCV (6 h): 65.2 fL
Mono (6 h): 7.8%
Neu (6 h): 12.8%
PT (6 h): 12.1 s
Plat (6 h): 104 x10_4/uL
RBC (6 h): 610.4 x10_4/ul
Ret (6 h): 9.2%
WBC (6 h): 126.6 x10_2/uL
KIDNEY_L (6 h): 0.9 g
KIDNEY_R (6 h): 0.9 g
KIDNEY_TOTAL (6 h): 1.8 g
LIVER (6 h): 8.3 g
A/G (6 h): 2.4
ALP (6 h): 828.6 IU/L
ALT (6 h): 30.2 IU/L
AST (6 h): 65.2 IU/L
BUN (6 h): 10.8 mg/dL
CRE (6 h): 0.6 mg/dL
Ca (6 h): 10.2 mg/dL
Cl (6 h): 103.8 meq/L
DBIL (6 h): 0.012 mg/dL
GLC (6 h): 182.4 mg/dL
IP (6 h): 9.6 mg/dL
K (6 h): 5.1 meq/L
LDH (6 h): 72.2 IU/L
Na (6 h): 136.6 meq/L
PL (6 h): 140.6 mg/dL
RALB (6 h): 3.8 g/dL
TBIL (6 h): 0.4 mg/dL
TC (6 h): 80.8 mg/dL
TG (6 h): 61.8 mg/dL
TP (6 h): 5.4 g/dL
gamma-GTP (6 h): 1 IU/L
TERMINAL_BW (9 h): 186.9 g
APTT (9 h): 16.2 s
Bas (9 h): 0%
Eos (9 h): 1%
Fbg (9 h): 226.8 mg/dL
Hb (9 h): 13 g/dL
Ht (9 h): 39.5%
Lym (9 h): 75%
MCH (9 h): 22 pg
MCHC (9 h): 33%
MCV (9 h): 66.7 fL
Mono (9 h): 7.8%
Neu (9 h): 16.2%
PT (9 h): 12.4 s
Plat (9 h): 107.7 x10_4/uL
RBC (9 h): 592 x10_4/ul
Ret (9 h): 9.4%
WBC (9 h): 120.6 x10_2/uL
KIDNEY_L (9 h): 0.9 g
KIDNEY_R (9 h): 0.9 g
KIDNEY_TOTAL (9 h): 1.8 g
LIVER (9 h): 8 g
A/G (9 h): 2
ALP (9 h): 859.8 IU/L
ALT (9 h): 32.2 IU/L
AST (9 h): 62.8 IU/L
BUN (9 h): 13 mg/dL
CRE (9 h): 0.5 mg/dL
Ca (9 h): 10.3 mg/dL
Cl (9 h): 104.6 meq/L
DBIL (9 h): 0.03 mg/dL
GLC (9 h): 186.2 mg/dL
IP (9 h): 9.8 mg/dL
K (9 h): 4.8 meq/L
LDH (9 h): 84.4 IU/L
Na (9 h): 136.6 meq/L
PL (9 h): 124 mg/dL
RALB (9 h): 3.7 g/dL
TBIL (9 h): 0.4 mg/dL
TC (9 h): 71.8 mg/dL
TG (9 h): 42 mg/dL
TP (9 h): 5.6 g/dL
gamma-GTP (9 h): 1.4 IU/L
TERMINAL_BW (24 h): 198.1 g
APTT (24 h): 17.2 s
Bas (24 h): 0%
Eos (24 h): 0.8%
Fbg (24 h): 218.5 mg/dL
Hb (24 h): 13.3 g/dL
Ht (24 h): 40.6%
Lym (24 h): 80.8%
MCH (24 h): 21.1 pg
MCHC (24 h): 32.9%
MCV (24 h): 64.2 fL
Mono (24 h): 6.2%
Neu (24 h): 12.5%
PT (24 h): 12.1 s
Plat (24 h): 107.1 x10_4/uL
RBC (24 h): 632.8 x10_4/ul
Ret (24 h): 8.1%
WBC (24 h): 135 x10_2/uL
KIDNEY_L (24 h): 0.9 g
KIDNEY_R (24 h): 0.9 g
KIDNEY_TOTAL (24 h): 1.8 g
LIVER (24 h): 9.7 g
A/G (24 h): 2.2
ALP (24 h): 883 IU/L
ALT (24 h): 32.5 IU/L
AST (24 h): 63.5 IU/L
BUN (24 h): 17.2 mg/dL
CRE (24 h): 0.5 mg/dL
Ca (24 h): 10.4 mg/dL
Cl (24 h): 102.8 meq/L
DBIL (24 h): 0.0425 mg/dL
GLC (24 h): 183.2 mg/dL
IP (24 h): 7.2 mg/dL
K (24 h): 5.4 meq/L
LDH (24 h): 87.2 IU/L
Na (24 h): 136 meq/L
PL (24 h): 152.8 mg/dL
RALB (24 h): 4 g/dL
TBIL (24 h): 0.3 mg/dL
TC (24 h): 77.2 mg/dL
TG (24 h): 113.2 mg/dL
TP (24 h): 5.8 g/dL
gamma-GTP (24 h): 1.5 IU/L
